Data: US12163161B2, “In vitro method for identifying thoracic aortic aneurysms (TAA) in a subject” (CENTRO NACIONAL DE INVESTIGACIONES CARDIOVASCULARES CARLOS …, priority 2016, dated 2024)
Blank lines part the entries; values can stand above or below the compound they belong to.

Tests used:
[1] = tested on: wt mice; assay: Ang-II treatment of wt mice for 28 days (ultrasonography of aorta); assay type: in vivo, mouse
Description: Animal procedures were approved by the CNIC Ethics Committee and conformed to European Union guidelines for the care and experimental use of animals. Adamts1+/− mice were obtained from the European Mouse Mutant Archive [(EM:02291) B6; 129P2-Adamts1<tm1Dgen>/H] and carried a LacZ-Neo cassette to replace a genomic sequence (c7784) between exon1 and 2 in the Adamts1 target allele. Fbn1C1039G/+ mice (Judge et al., 2004), harboring a mutation in the Fbn1 gene, and Nos2−/− mice (Laubach et al., 1995) were obtained from Jackson Laboratories (JAX mice stock #012885 and 007072, respectively). These 3 strains had been previously backcrossed to C57BL/6 for more than nine generations. […]
(§1) For in vivo ultrasound images, the aortic diameter was monitored in isofluorane-anesthetized mice (2% isofluorane) by high-frequency ultrasound with a VEVO 2100 echography device (VisualSonics, Toronto, Canada). Maximal internal diameters of aortic images were measured using VEVO 2100 software, version 1.5.0. […]
To investigate the contribution of Adamts1 to Ang-II-elicited aortic dilation and aneurysm, we used Adamts1 deficient mice from the European Mouse Mutant Archive (EM: 02291). […] No aneurysms or lethal dissections were detected in Adamts1+/− mice in the absence of Ang-II at this age.

[2] = tested on: Adamts1+/− mice; assay: Treatment of Adamts1+/− mice (aortic diameter, BP, histology); assay type: in vivo, mouse
Description: (§2) Animal procedures were approved by the CNIC Ethics Committee and conformed to European Union guidelines for the care and experimental use of animals. Adamts1+/− mice were obtained from the European Mouse Mutant Archive [(EM:02291) B6; 129P2-Adamts1<tm1Dgen>/H] and carried a LacZ-Neo cassette to replace a genomic sequence (c7784) between exon1 and 2 in the Adamts1 target allele. Fbn1C1039G/+ mice (Judge et al., 2004), harboring a mutation in the Fbn1 gene, and Nos2−/− mice (Laubach et al., 1995) were obtained from Jackson Laboratories (JAX mice stock #012885 and 007072, respectively). These 3 strains had been previously backcrossed to C57BL/6 for more than nine generations. All mice were genotyped by PCR of tail samples using the following primers: Adamts1 mice (5′-[…]-3′(SEQ ID NO: 5), 5′-[…] (SEQ ID NO: 6)/[…]-3′ (SEQ ID NO: 7)); Nos2−/− mice (5′[…] 3′ (SEQ ID NO: 8); 5′ […] 3′(SEQ ID NO: 9), 5′ […] 3′) (SEQ ID NO: 10); Fbn1C1039G/+ mice (5′CTCATCATTTTTGGCCAGTTG 3′ (SEQ ID NO: 11), 5′GCACTTGATGCACATTCACA 3′ (SEQ ID NO: 12)). Wild-type littermates were used as controls unless otherwise specified. Mice were treated with Ang-II (Sigma-Aldrich) at 1 μg/kg/min or losartan (Sigma Aldrich) at 10 mg/kg/day using subcutaneous osmotic minipumps (Alzet Corp). The monoclonal pan-antibody against TGFβ1, 2, 3 clone 1D11 (BioXcell) was injected intraperitoneally 3 times per week at 10 mg/kg.
(§3) Arterial blood pressure (BP) was measured in mouse tails using the automated BP-2000 Blood Pressure Analysis System (Visitech Systems, Apex, NC, USA). In brief, mice were trained for BP measurements every day for one week. After training, BP was measured one day before treatment or before lentiviral infection to determine the baseline BP values in each mouse cohort. Measurements were repeated several times during experiments. BP measurements were recorded in mice located in a tail-cuff restrainer, over a warmed surface (37° C.). Fifteen consecutive systolic and diastolic BP measurements were made, and the last ten readings per mouse were recorded and averaged.
(§4) For in vivo ultrasound images, the aortic diameter was monitored in isofluorane-anesthetized mice (2% isofluorane) by high-frequency ultrasound with a VEVO 2100 echography device (VisualSonics, Toronto, Canada). Maximal internal diameters of aortic images were measured using VEVO 2100 software, version 1.5.0. All recordings were made by a cardiologist and a technician who were blinded to animal genotype and treatment. Measurements were taken before lentivirus administration or the corresponding treatments to determine the baseline diameters, and measurements were repeated several times during the experiment.
(§5) Images of Masson's trichrome and EVG staining were analyzed for collagen content with ImageJ (http://rsbweb.nih.gov/ij/index.html) and with MetaMorph (Molecular Devices; Sunnyvale, California) for quantification of elastin breaks. For each animal, elastin breaks were counted in 3 sections and the mean number of breaks was calculated. Images were processed for presentation with Photoshop and Illustrator (Adobe).

[3] = target: T1, Nos2 (Mus musculus, UniProt P29477); assay: NO / total NOx production in VSMCs transduced with siAdamts1 and treated with Nos2 inhibitors; assay type: cell-based; conditions: FIG. 16: 1400W (2 μm), AG, GW273629 (20 μm), 1-NIL (3 mM), Clotrimazole (20 μM)
T1 construct: endogenous in cells; host or cells: primary mouse VSMCs transduced with siCtl or siAdamts1 lentivirus
Experimental: FIG. 17. Representative images (n=4) of NO production (red) and GFP fluorescence (green) in unfixed VSMCs transduced with siCtl or siAdamts1 and treated with the Nos2 inhibitors as indicated. Bar, 50 μm.
Mouse vascular smooth muscle cells (VSMCs) were isolated and grown as described (Esteban et al., 2011). All experiments were performed during passages 3-7. VSMCs were infected at a multiplicity of infection (MOI)=3 over 5 h. The medium was then replaced with fresh DMEM supplemented with 10% FBS, and cells were cultured for 3 more days, serum-starved for 48 h and then stimulated with Ang-II for 6 h for protein assays or 4 h for mRNA expression analysis.

[4] = target: NOS2 (Homo sapiens, UniProt P35228); conditions: as reported previously; cited from earlier work
Chain of NOS2 (P35228 whole entry): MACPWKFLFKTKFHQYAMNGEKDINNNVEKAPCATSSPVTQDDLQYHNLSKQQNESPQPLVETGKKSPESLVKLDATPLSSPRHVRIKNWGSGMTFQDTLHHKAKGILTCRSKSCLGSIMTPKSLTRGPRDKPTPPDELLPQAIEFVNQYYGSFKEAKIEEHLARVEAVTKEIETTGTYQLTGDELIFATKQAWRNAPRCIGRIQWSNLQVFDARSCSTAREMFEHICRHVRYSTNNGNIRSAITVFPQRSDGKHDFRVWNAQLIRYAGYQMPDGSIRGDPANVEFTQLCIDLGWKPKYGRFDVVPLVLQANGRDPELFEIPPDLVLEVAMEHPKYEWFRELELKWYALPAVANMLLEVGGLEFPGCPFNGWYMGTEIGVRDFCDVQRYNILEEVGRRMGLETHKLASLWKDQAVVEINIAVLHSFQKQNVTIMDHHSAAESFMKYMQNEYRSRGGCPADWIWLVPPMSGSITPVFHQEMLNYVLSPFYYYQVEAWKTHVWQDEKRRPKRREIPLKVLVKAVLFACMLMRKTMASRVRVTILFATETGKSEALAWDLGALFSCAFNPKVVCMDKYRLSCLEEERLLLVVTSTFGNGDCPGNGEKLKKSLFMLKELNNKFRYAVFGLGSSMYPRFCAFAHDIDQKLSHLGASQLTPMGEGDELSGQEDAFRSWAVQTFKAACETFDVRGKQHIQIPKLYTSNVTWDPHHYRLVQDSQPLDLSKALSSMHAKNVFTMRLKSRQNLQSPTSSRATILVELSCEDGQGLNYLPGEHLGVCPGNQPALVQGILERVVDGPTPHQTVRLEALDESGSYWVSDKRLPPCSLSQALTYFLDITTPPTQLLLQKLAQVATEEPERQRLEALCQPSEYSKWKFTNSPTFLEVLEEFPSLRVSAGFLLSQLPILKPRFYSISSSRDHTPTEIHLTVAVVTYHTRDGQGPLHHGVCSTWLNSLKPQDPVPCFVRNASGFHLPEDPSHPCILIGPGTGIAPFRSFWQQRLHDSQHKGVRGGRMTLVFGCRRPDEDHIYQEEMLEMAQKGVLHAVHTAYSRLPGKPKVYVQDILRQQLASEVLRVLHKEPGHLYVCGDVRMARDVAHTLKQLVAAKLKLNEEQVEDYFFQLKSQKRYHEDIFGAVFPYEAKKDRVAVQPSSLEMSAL

[5] = tested on: Fbn1C1039G/+ mice; assay: Treatment of Fbn1C1039G/+ mice (Marfan syndrome model); assay type: in vivo, mouse
Description: as §2, §3, §1
as §5, with “Images were processed for presentation with Photoshop and Illustrator (Adobe).” left out

[6] = tested on: siAdamts1-transduced C57BL/6 mice; assay: Aortopathy induced by siAdamts1 lentivirus (aortic Adamts1 knockdown) in C57BL/6 mice; assay type: in vivo, mouse; conditions: for Elastic fiber fragmentation (elastolysis, elastin breaks) / Fibrosis (collagen content): aortic sections, end of experiment; for Aortic dilation (AsAo and AbAo diameter) induced by siAdamts1: anti-TGFβ 10 mg/kg i.p. 3 times per week, L-NAME 0.5 mg/ml in drinking water; for Systolic and diastolic BP (hypotension) in siAdamts1-transduced mice: same treatments as E4
Description: as §2, §3, §4
For in vivo transduction experiments, animals were anesthetized (ketamine/xilacine) and a small incision was made to expose the right jugular vein (Esteban et al., 2011). Virus solution ([…] in PBS) was inoculated directly into the right jugular vein 3 weeks before Ang-II mini-pump implantation or one day before monitoring of aortic dilation. Transduction efficiency was analyzed in aortic samples by immunohistochemistry for GFP and Adamts1.
as §5, with “(Adobe). […]” for “(Adobe).”
Aortic extracts were prepared from whole aortas as described for immunoblot assays, but in the absence of DTT. Extracts (15 μg) were fractionated under nonreducing conditions on SDS-polyacrylamide gels containing 1% gelatin. […]

[7] = tested on: model of severe MFS; conditions: compared with mild MFS model; cited from earlier work
[8] = tested on: mouse model of mild MFS; conditions: cited from earlier work
[9] = tested on: aortic root enlargement; conditions: randomized clinical trials, cited from earlier work
[10] = L-NAME 21 days, end of experiment

Compound: Angiotensin-II (DRVYIHPF; Angiotensin-2; UniProt P01019 25-32, looked up) [Ang-II]
Aortic dilation (AR, AsAo, AbAo) ([1]; 8-week-old wt mice, Ang-II for 28 days, 1 μg/kg/min minipump): promoted generalized aortic dilation
AA or lethal aortic dissections ([1]; wt mice, Ang-II 28 days): barely induced AA or lethal aortic dissections
AA or lethal aortic dissections ([2]; Adamts1+/− mice, Ang-II 28 days): readily triggered their formation

NO production (total NOx in conditioned media, NO staining) [3]: reduced the expression of NO
Compound: CC(=N)NCc1cccc(CN)c1 [1400W]

NO production (total NOx in conditioned media, NO staining) [3]: reduced the expression of NO
Compound: CC(=N)NCCCC[C@H](N)C(=O)O [L-NIL]

NO production (total NOx in conditioned media, NO staining) [3]: reduced the expression of NO
Compound: Aminoguanidine
Aortic diameter (ascending and abdominal aorta) ([2]; AG 1.5 gr/1 in drinking water): reduces aortic diameter

NO production (total NOx in conditioned media, NO staining) [3]: reduced the expression of NO
Compound: Clc1ccccc1C(c1ccccc1)(c1ccccc1)n1ccnc1 [Clotrimazole]
Dimerization of NOS2 [4]: inhibits the dimerization of NOS2

NO production (total NOx in conditioned media, NO staining) [3]: reduced the expression of NO
Compound: CC(=N)NCCS(=O)(=O)CC(N)C(=O)O (centres unmarked) [GW273629]

NO production (total NOx in conditioned media, NO staining) [3]: reduced the expression of NO
Compound: COC(=O)[C@@H](N)CCCNC(=N)N[N+](=O)[O-].Cl [L-NAME, Nω-Nitro-L-arginine methyl ester hydrochloride]
AsAo and AbAo diameters ([5]; 12-week-old mice, L-NAME in drinking water for 21 days): rapidly decreased the AsAo and AbAo diameters to normal levels
Collagen content ([5]; L-NAME 21 days, AsAo and AbAo): unaffected
Elastic fiber fragmentation [5, 10]: diminished elastic fiber fragmentation
Systolic and diastolic BP [5, 10]: augmented the systolic and diastolic BP
Time to complete reversal of aortic dilation ([2]; Adamts1+/− and MFS mice): 1 week
Elastic fiber fragmentation [2, 10]: decreased elastic fiber fragmentation
Fibrosis (collagen content) [2, 10]: diminished fibrosis
AsAo and AbAo diameter ([2]; L-NAME in drinking water for 21 days): rapidly decreased AsAo and AbAo diameter to normal levels
Systolic and diastolic BP ([2]; L-NAME in drinking water for 21 days, end of experiment): reverted the systolic and diastolic hypotension
Mmp9 activation (zymography) ([6]; aortic extracts from siAdamts1-transduced mice): prevented Mmp9 activation
Elastic fiber fragmentation (elastolysis, elastin breaks) [6]: blocked elastolysis
Fibrosis (collagen content) [6]: decreased the fibrosis
Aortic dilation (AsAo and AbAo diameter) induced by siAdamts1 ([6]; losartan 10 mg/kg/day minipump): prevented siAdamts1-induced dilation of the AsAo and the AbAo
Systolic and diastolic BP (hypotension) in siAdamts1-transduced mice [6]: hypertensive effect

Compound: CCCCc1nc(Cl)c(CO)n1Cc1ccc(-c2ccccc2-c2nn[nH]n2)cc1 [losartan]
Effectiveness in severe MFS model [7]: less effective
Aortic dilation [8]: these processes are also inhibited
Elastic lamellae fragmentation [8]: these processes are also inhibited
Elastic fiber fragmentation (elastolysis, elastin breaks) [6]: did not reduce elastic fiber fragmentation
Fibrosis (collagen content) [6]: did not reduce elastic fiber fragmentation or fibrosis
Aortic dilation (AsAo and AbAo diameter) induced by siAdamts1 ([6]; losartan 10 mg/kg/day minipump): neither treatment inhibited aortic dilation
Systolic and diastolic BP (hypotension) in siAdamts1-transduced mice [6]: did not prevent hypotension
BP in control mice ([6]; siCtl control mice, losartan 10 mg/kg/day minipump): reduced BP in control mice
Reduction of the rate of aortic root enlargement ([9]; versus atenolol): no more effective
Benefit of dual therapy with atenolol [9]: no additional benefit
